Assay results reported in patent US5602101A, “Antithrombotic agents” (priority 1994, dated 1997).

Experiments:
Type in all cases: biochemical
[1] = tested on: Human Plasma; test: Anticoagulation in human plasma, thrombin time (TT); details: concentration required to double the thrombin time
Description: (§1) Dog plasma and rat plasma are obtained from conscious mixed-breed hounds (either sex, Hazelton-LRE, Kalamazoo, Mich., U.S.A.) or from anesthetized male Sprague-Dawley rats (Harlan Sprague-Dawley, Inc., Indianapolis, Ind., U.S.A.) by venipuncture into 3.8 percent citrate. Fibrinogen is prepared from in-date ACD human blood as the fraction I-2 according to previous procedures and specifications. Smith, Biochem. Chem. […] Human fibrinogen is also purchased as 98 percent pure/plasmin free from American Diagnostics, Greenwich, Conn. Coagulation reagents ACTIN, Thromboplastin, and Human plasma are from Baxter Healthcare Corp., Dade Division, Miami, Fla. Bovine thrombin from Parke-Davis (Ann Arbor, Mich.) is used for coagulation assays in plasma. Coagulation assay procedures are as previously described. Smith, et al., Thrombosis Research, 5, 163-174 (1988). A CoAScreener coagulation instrument (American LABor, Inc.) is used for all coagulation assay measurements. The prothrombin time (PT) is measured by adding 0.05 ml saline and 0.05 ml Thromboplastin-C reagent to 0.05 ml test plasma. The activated partial thromboplastin time (APTT) is measured by incubation of 0.05 ml test plasma with 0.05 ml Actin reagent for 120 seconds followed by 0.05 ml CaCl2 (0.02M). […] The compounds of formula I are added to human or animal plasma over a wide range of concentrations to determine prolongation effects on the APTT, PT, and TT assays. Linear extrapolations are performed to estimate the concentrations required to double the clotting time for each assay.

[2] = target: T1, Bovine trypsin (Bos taurus, UniProt P00760); test: Serine protease inhibition, trypsin (chromogenic substrate), Kass; details: substrate N-Benzoyl-Phe-Val-Arg-p-nitroanilide
T1 construct: Bovine trypsin is purchased from Worthington Biochemicals, Freehold, N.J; purchased Worthington Biochemicals, Freehold, N.J
T1 sequence (P00760 24-246): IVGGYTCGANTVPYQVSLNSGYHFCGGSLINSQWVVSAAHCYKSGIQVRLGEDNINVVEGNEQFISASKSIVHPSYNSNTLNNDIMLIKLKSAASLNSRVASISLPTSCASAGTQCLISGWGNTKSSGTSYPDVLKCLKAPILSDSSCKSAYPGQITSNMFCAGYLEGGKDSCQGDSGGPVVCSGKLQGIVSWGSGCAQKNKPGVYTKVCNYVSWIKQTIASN
Description: (§2) The assay is carried out by mixing 50 μl buffer (0.03M Tris, 0.15M NaCl, pH 7.4), 25 μl of human thrombin solution (purified human thrombin Enzyme Research Laboratories, South Bend, Ind.) at 8 NIH units/ml and 25 μl of test compound in a solvent (50% aqueous methanol (v:v)). Then 150 μl of an aqueous solution of the chromogenic substrate (at 0.25 mg/ml) are added and the rates of hydrolysis of the substrate are measured by monitoring the reactions at 405 nm for the release of p-nitroaniline. Standard curves are constructed by plotting free thrombin concentration against hydrolysis rate. The hydrolysis rates observed with test compounds are then converted to "free thrombin" values in the respective assays by use of the standard curves. The bound thrombin (bound to test compound) is calculated by subtracting the amount of free thrombin observed in each assay from the known initial amount of thrombin used in the assay. The amount of free inhibitor in each assay is calculated by subtracting the number of moles of bound thrombin from the number of moles of added inhibitor (test compound).
(§3) Kass is calculated for a range of concentrations of test compounds and the mean value is reported in units of liter per mole.
(§4) By substantially following the procedures described above for human thrombin, and using other human blood coagulation system serine proteases, and using fibrinolytic system serine proteases, with the appropriate chromogenic substrate, identified below, selectivity of the compounds of the present invention with respect to the coagulation factor serine proteases and to the fibrinolytic serine proteases are evaluated as well as their substantial lack of interference with human plasma clot fibrinolysis.
(§5) Human factors X, Xa, IXa, XIa, and xIIa are purchased from Enzyme Research Laboratories, South Bend, Ind.; human urokinase from Leo Pharmaceuticals, Denmark; and recombinant activated Protein C (aPC) is prepared at Eli Lilly and Co. substantially according to U.S. Pat. No. 4,981,952 incorporated by reference herein in its entirety. Chromogenic substrates: N-Benzoyl-Ile-Glu-Gly-Arg-p-nitroanilide (for factor Xa); N-Cbz-D-Arg-Gly-Arg-p-nitroanilide (for factor IXa assay as the factor Xa substrate) pyroglutamyl-Pro-Arg-p-nitroanilide (for factor XIa and for aPC); H-D-Pro-Phe-Arg-p-nitroanilide (for factor XIIa); and pyroglutamyl-Gly-Arg-p-nitroanilide (for urokinase); are purchased from KabiVitrum, Stockholm, Sweden, or from Midwest Biotech, Fishers, Indiana. Bovine trypsin is purchased from Worthington Biochemicals, Freehold, N.J., and human plasma kallikrein from Kabi Vitrum, Stockholm, Sweden. N-Benzoyl-Phe-Val-Arg-p-nitroanilide, the substrate for human thrombin and for trypsin, is synthesized according to procedures described above for the compounds of the present invention, known methods of peptide coupling from commercially available reactants, or was purchased from Midwest Biotech, Fishers, Ind. Human plasmin is purchased from Boehringer Mannheim, Indianapolis, Ind.; nt-PA is purchased as single chain activity reference from American Diagnostics, Greenwich, Conn.; modified-t-PA6 (mt-PA6) is prepared at Eli Lilly and Company by procedure known in the art (See, Burck, et al., J. Biol. Chem., 265, […] (1990). Plasmin chromogenic substrate H-D-Val-Leu-Lys-p-nitroanilide and tissue plasminegen activator (t-PA) substrate H-D-Ile-Pro-Arg-p-nitroanilide are purchased from Kabi Vitrum, Stockholm, Sweden.

[3] = tested on: Human Plasma; test: Anticoagulation in human plasma, activated partial thromboplastin time (APTT); details: concentration required to double the APTT
Description: as §1

[4] = target: T2, human thrombin (Homo sapiens, UniProt P00734); test: Inhibition of amidase activity of thrombin (chromogenic substrate), Kass; details: substrate N-benzoyl-Phe-Val-Arg-p-nitroanilide, pH 7.4
T2 construct: purified human thrombin Enzyme Research Laboratories, South Bend, Ind; purchased Enzyme Research Laboratories, South Bend, Ind
Description: as §2
The Kass value is the hypothetical equilibrium constant for the reaction between thrombin and the test compound (I). [drawing 53]
as §3

[5] = tested on: Human Plasma; test: Anticoagulation in human plasma, prothrombin time (PT); details: concentration required to double the PT
Description: as §1

[6] = target: T3, Human plasmin (Homo sapiens, UniProt P00747); test: Serine protease inhibition, plasmin (chromogenic substrate), Kass; details: substrate H-D-Val-Leu-Lys-p-nitroanilide
T3 construct: Human plasmin is purchased from Boehringer Mannheim, Indianapolis, Ind; purchased Boehringer Mannheim, Indianapolis, Ind
T3 sequence (P00747 581-810 limits assumed): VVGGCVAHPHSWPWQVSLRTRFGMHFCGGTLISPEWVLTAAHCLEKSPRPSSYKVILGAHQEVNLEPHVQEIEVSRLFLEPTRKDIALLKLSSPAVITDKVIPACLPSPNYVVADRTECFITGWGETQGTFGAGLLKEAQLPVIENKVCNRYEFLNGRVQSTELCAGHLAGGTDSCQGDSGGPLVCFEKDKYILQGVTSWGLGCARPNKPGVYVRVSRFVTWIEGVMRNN
T3 sequence (P00747 97-580 partner limits assumed): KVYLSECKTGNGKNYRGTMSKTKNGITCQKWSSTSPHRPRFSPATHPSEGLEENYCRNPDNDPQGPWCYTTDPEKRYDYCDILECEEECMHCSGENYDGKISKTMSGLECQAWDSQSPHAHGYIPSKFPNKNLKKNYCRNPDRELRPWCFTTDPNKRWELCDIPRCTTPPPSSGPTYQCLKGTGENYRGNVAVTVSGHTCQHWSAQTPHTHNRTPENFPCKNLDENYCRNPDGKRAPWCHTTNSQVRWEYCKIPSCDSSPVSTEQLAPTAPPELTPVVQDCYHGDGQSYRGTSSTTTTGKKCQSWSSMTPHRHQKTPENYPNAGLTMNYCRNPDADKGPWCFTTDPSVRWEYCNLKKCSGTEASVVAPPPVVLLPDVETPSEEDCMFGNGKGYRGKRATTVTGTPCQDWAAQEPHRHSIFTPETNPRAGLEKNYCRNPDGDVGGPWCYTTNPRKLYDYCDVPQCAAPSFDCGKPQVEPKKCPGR
Description: as §2, §3, §4, §5

[7] = target: T4, factor Xa (Homo sapiens, UniProt P00742); test: Serine protease inhibition, factor Xa (chromogenic substrate), Kass; details: substrate N-Benzoyl-Ile-Glu-Gly-Arg-p-nitroanilide
T4 construct: Human factors X, Xa, IXa, XIa, and xIIa are purchased from Enzyme Research Laboratories; purchased Enzyme Research Laboratories, South Bend, Ind
T4 sequence (P00742 235-488 limits assumed): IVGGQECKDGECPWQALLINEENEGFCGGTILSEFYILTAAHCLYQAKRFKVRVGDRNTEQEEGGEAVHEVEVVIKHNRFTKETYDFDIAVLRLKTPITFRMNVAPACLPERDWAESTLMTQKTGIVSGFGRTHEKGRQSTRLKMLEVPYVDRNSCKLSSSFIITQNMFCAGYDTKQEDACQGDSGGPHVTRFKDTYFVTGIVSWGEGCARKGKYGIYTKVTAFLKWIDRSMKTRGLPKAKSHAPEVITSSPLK
T4 sequence (P00742 41-179 partner limits assumed): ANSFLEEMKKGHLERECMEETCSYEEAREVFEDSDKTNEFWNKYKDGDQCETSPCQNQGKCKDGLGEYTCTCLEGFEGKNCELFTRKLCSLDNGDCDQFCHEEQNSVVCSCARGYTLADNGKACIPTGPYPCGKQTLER
Description: as §2, §3, §4, §5

[8] = target: T5, tissue plasminogen activator (t-PA) (Homo sapiens, UniProt P00750); test: Serine protease inhibition, t-PA (chromogenic substrate), Kass; details: substrate H-D-Ile-Pro-Arg-p-nitroanilide
T5 construct: purchased American Diagnostics, Greenwich, Conn
T5 sequence (P00750 36-562): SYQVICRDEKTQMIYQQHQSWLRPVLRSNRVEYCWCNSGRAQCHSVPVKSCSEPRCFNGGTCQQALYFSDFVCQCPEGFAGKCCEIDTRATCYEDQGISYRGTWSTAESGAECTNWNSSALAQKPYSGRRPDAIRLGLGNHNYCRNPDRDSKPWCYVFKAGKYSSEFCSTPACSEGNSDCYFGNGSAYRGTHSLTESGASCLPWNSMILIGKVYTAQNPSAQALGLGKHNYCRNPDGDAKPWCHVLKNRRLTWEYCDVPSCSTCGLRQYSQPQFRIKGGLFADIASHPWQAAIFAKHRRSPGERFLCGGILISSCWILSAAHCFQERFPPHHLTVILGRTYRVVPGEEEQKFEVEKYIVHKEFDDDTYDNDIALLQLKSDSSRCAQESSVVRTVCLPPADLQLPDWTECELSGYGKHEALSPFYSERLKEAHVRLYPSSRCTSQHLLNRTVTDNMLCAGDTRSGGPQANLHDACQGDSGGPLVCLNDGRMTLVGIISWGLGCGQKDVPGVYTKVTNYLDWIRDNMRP
Description: as §2, §3, §4, §5

| SMILES | 2 × Clotting time, TT [1] [ng/mL] | Enzyme Kass, Trypsin [2] [L/mol × 10^6] | 2 × Clotting time, APTT [3] | Enzyme Kass, Human Thrombin [4] [L/mol × 10^6] | 2 × Clotting time, PT [5] | Enzyme Kass, Plasmin [6] [L/mol × 10^6] | Enzyme Kass, Xa [7] [L/mol × 10^6] | Enzyme Kass, t-Pa [8] [L/mol × 10^6] |
| --- | --- | --- | --- | --- | --- | --- | --- | --- |
| Cl.NC(N)=NCCCC(C=O)NC(=O)C1CCCN1C(=O)C(CC1CCCCC1)NC(=O)c1ccc2ccccc2n1 [Example 6, N-(quinolinyl-2-carbonyl)-D-Cha-Pro-Arg-H-HCl] | 97 | 2.5 | 1,400 ng/ML | 200 | 2,700 ng/ML | 2.5 | 0.83 | 0.088 |
| COc1ccc(OC)c(S(=O)(=O)N[C@H](Cc2ccccc2)C(=O)N2CCC[C@H]2C(=O)N[C@H](C=O)CCCNC(=N)N)c1.Cl [Example 15, 2,5-(MeO)2 -PhSO2 -D-Phe-Pro-Arg-H-HCl] | 92 | 150 | 550 ng/mL | 200 | 2,000 ng/ML | 9.5 | 8.8 | 1.5 |
| Cc1noc(C)c1S(=O)(=O)N[C@H](Cc1ccccc1)C(=O)N1CCC[C@H]1C(=O)N[C@H](C=O)CCCNC(=N)N.Cl [Example 16, 3,5-Me-4-isoxazolyl-SO2 -D-Phe-Pro-Arg-H.HCl] | 33 | 200 | 430 ng/mL | 260 | 1,300 ng/ML | 18 | 11 | 2.7 |
| Cl.N=C(N)NCCC[C@@H](C=O)NC(=O)[C@@H]1CCCN1C(=O)[C@@H](Cc1ccccc1)NS(=O)(=O)c1nccs1 [Example 19, 2-Thiazolyl-SO2 -D-Phe-Pro-Arg-H-HCl] | 66 | 52 | 810 ng/mL | 68 | 2,900 ng/ML | 3.4 | 2.8 | 0.31 |
| CC(=O)N[C@H](Cc1ccccc1)C(=O)N1CCC[C@H]1C(=O)N[C@H](C=O)CCCN=C(N)N.Cl [Example 23, Ac-D-Phe-Pro-Arg-H.HCl] | 140 | 14 | 2,700 ng/ML | 3.4 | 4,100 ng/ML | 0.28 | 0.066 | 0.11 |
| Cl.N=C(N)NCCC[C@@H](C=O)NC(=O)[C@@H]1CCCN1C(=O)[C@@H](Cc1ccccc1)NC(=O)C(F)(F)F [Example 25, CF3 CO-D-Phe-Pro-Arg-H.HCl] | 59 | 15 | 1,300 ng/ML | 26 | 1,800 ng/ML | 0.31 | 0.033 | 0.17 |
| Cl.N=C(N)NCCC[C@@H](C=O)NC(=O)[C@@H]1CCCN1C(=O)[C@@H](Cc1ccccc1)NC(=O)Cc1ccccc1 [Example 26, PhCH2 CO-D-Phe-Pro-Arg-H.HCl] | 64 | 14 | 1,100 ng/ML | 29 | 2,000 ng/ML | 0.54 | 0.10 | 0.37 |
| CCOC(=O)N[C@H](CC1CCCCC1)C(=O)N1CCC[C@H]1C(=O)N[C@H](C=O)CCCN=C(N)N.Cl [Example 34, EtOCO-D-Cha-Pro-Arg-H.HCl] | 48 | 140 | 410 ng/mL | 360 | 890 ng/mL | 26 | 8.1 | 0.75 |
| Cl.N=C(N)NCCC[C@@H](C=O)NC(=O)[C@@H]1CCCN1C(=O)[C@@H](Cc1ccccc1)NCC(=O)O [Example 35, HOOCCH2 -D-Phe-Pro-ArgH.HCl] | 14 | – | 723 ng/mL | 695 | 1129 ng/mL | – | 3.3 | – |
| Cl.N=C(N)NCCC[C@@H](C=O)NC(=O)[C@@H]1CCCN1C(=O)[C@@H](CC1CCCCC1)NCC(=O)O [Example 36, HOCCH2 -D-Cha-Pro-ArgH.HCl] | 9 | – | 284 ng/mL | 556 | 695 ng/mL | – | 40.5 | – |
